Results on 16 compounds are retold here after patent publication US7030137B2, “Substituted thiophenes with antibacterial activity” (Replidyne, Inc., priority 2003, dated 2006).

In assay [1] the test system is S. aureus, S. pneumoniae, and E. faecalis. The assay can be described thus: MIC against some strains of gram positive pathogens. The assay is classed as cell-based. How it is done: (§1) Compounds of the present invention were assayed for antibacterial activity against a range of pathogenic organisms (strains of S aureus, S pneumoniae, E faecalis, H influenzae and M catarrhalis) in a standard MIC assay modified by the inclusion of cyclodextrin, to assist with solubility.

Assay [2] has as its system S. pneumo. Nature of the assay: MIC S. pneumo (standard MIC assay modified by inclusion of cyclodextrin). As to conditions: Streptococcus pneumoniae. The assay is classed as cell-based. The protocol: as §1
Assay [3] deals with H. influenzae. The assay can be described thus: MIC H. influenzae (standard MIC assay modified by inclusion of cyclodextrin). The assay is classed as cell-based. As to conditions: Haemophilus influenzae. How it is done: as §1
Assay [4] deals with M catarrhalis and H. influenzae. Nature of the assay: MIC against some strains of gram negative pathogens. The assay is classed as cell-based. As to conditions: Haemophilus influenzae. The protocol:
as §1

Assay [5] has as its system S. aureus. The assay can be described thus: MIC S. aureus (standard MIC assay modified by inclusion of cyclodextrin). The assay is classed as cell-based. As to conditions: Staphylococcus aureus. The protocol: as §1
The target of assay [6] is T1, recombinant H. influenzae MRS (Haemophilus influenzae, UniProt P43828).
T1 construct: made in house
T1 sequence (P43828 whole entry): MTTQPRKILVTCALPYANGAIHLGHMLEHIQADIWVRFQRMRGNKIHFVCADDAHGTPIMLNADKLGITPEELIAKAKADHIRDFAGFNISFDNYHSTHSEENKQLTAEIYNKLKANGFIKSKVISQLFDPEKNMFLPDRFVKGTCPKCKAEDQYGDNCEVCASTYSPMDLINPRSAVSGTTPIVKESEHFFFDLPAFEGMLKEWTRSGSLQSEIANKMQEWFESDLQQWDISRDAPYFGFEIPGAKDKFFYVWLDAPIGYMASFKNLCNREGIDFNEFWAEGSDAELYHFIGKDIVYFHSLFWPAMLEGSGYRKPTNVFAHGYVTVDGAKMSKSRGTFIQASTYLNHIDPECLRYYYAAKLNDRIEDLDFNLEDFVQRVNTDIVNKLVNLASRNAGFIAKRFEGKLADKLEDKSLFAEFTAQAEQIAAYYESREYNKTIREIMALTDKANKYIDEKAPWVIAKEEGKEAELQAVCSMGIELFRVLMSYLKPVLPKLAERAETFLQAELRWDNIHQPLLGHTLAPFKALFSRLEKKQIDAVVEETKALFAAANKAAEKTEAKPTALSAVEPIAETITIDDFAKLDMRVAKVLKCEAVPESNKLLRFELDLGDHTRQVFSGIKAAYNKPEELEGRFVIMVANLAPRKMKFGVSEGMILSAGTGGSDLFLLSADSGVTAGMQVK
The assay can be described thus: Enzyme Inhibition (H. influenzae MRS) aminoacylation assay. The assay is classed as biochemical. As to conditions: read-out: IC50 against H. influenzae MRS. The protocol:
2. Enzyme Inhibition (H. influenzae MRS)—aminoacylation assay
Compounds of the present invention may be assayed for their ability to inhibit the enzyme methionyl tRNA synthetase (MRS), using recombinant H. influenzae MRS(R. D. Fleischmann et al., Science, 269, 496–512, 1995), as follows:
The reaction is started by adding 20 μl appropriately diluted pure enzyme (pre-incubated with inhibitor) to 25 μl reaction mix for 10 min at room temperature. The reaction is terminated by the addition of 150 μl 167 mM sodium citrate, pH 2.15 containing phosphodiesterase (PDE) SPA beads (0.833 mg/ml). The binding of the radiolabelled product to the bead brings the isotope into close enough proximity to allow radiation from the tritium to excite the scintillant within the bead. Any unbound radiolabel is not close enough to the scintillant to allow this energy transfer, so no signal is generated. Following termination of the reaction, plates are spun at 2500 rpm for 5 min in a Mistral 3000E plate centrifuge (or alternatively allowed to stand for 1 hour). The assay is conducted in 96-well Optiplates (Packard). Plates are counted on a TopCount. (Packard 96 well counter).
Mixed E. coli MRE 600 tRNA and ATP were purchased from Boehringer-Mannheim, L-[methyl-^3H]methionine and phosphodiesterase scintillation proximity (SPA) beads from Amersham Pharmacia Biotech and other reagents from Sigma.

What is called IC50 is the concentration at which inhibition is half-maximal.

≈ marks a conversion by molar mass, not a printed value. Where a name gives a salt, the structure may show the parent alone.

As for `Cc1c(CNCCCNc2nc3nnccc3[nH]2)sc(C(F)(F)F)c1Br` [Example 12, N-(4-bromo-3-methyl-5-trifluoromethylthiophen-2-ylmethyl)-N′-(5H-imidazo[4,5-c]pyridazin-6-yl)propane-1,3-diamine dihydrochloride], the MIC is 0.06 to 0.5 µg/mL in assay [1]; 2 µg/mL in assay [2]; 0.25 µg/mL in assay [3]; 0.13 to 8 µg/mL in assay [4]; 0.5 µg/mL in assay [5].

`C=C(F)c1sc(CNCCCNc2cc(=O)c3ccccc3[nH]2)c(C)c1Br` [Example 4, N-(4-bromo-5-(1-fluorovinyl)-3-methylthiophen-2-ylmethyl)-N′-(1H-quinolin-4-one)propane-1,3-diamine]: the MIC in assay [1] is 0.06 to 0.5 µg/mL (≈ 0.133 to 1.11 µM); in assay [2] it was 0.06 µg/mL (≈ 0.133 µM); in assay [3], 4 µg/mL (≈ 8.88 µM); in assay [4], 0.13 to 8 µg/mL (≈ 0.289 to 17.8 µM); in assay [5], 0.06 µg/mL (≈ 0.133 µM).

In the case of `Cc1c(CNCCCNc2nc3cscc3[nH]2)sc(Br)c1Br` [Example 18, N-(4,5-Dibromo-3-methylthiophen-2-ylmethyl)-N′-(1H-thieno[3,4-d]imidazol-2-yl)propane-1,3-diamine], the MIC is 0.06 to 0.5 µg/mL (≈ 0.129 to 1.08 µM) in assay [1]; 0.25 µg/mL (≈ 0.539 µM) in assay [2]; 8 µg/mL (≈ 17.2 µM) in assay [3]; 0.13 to 8 µg/mL (≈ 0.28 to 17.2 µM) in assay [4]; 0.13 µg/mL (≈ 0.28 µM) in assay [5]. Besides, the IC50 in assay [6] is ≤ 200 nM.

As to `C=C(F)c1sc(CNCCCNc2nc3ccccc3[nH]2)c(C)c1Br` [Example 22, N-(4-bromo-5-(1-fluorovinyl)-3-methylthiophen-2-ylmethyl)-N′-(1H-benzimidazole)propane-1,3-diamine], the MIC in assay [1] was 0.06 to 0.5 µg/mL (≈ 0.142 to 1.18 µM); in assay [2], 0.5 µg/mL (≈ 1.18 µM); in assay [3], 16 µg/mL (≈ 37.8 µM); in assay [5], 0.13 µg/mL (≈ 0.307 µM). The IC50 in assay [6] was ≤ 200 nM.

Turning to `C=Cc1sc(CNCCCNc2nc3nnccc3[nH]2)c(C)c1Br` [Example 13, N-(4-bromo-3-methyl-5-vinylthiophen-2-ylmethyl)-N′-(5H-imidazo[4,5-c]pyridazin-6-yl)propane-1,3-diamine dihydrochloride], the MIC in assay [1] was 0.06 to 0.5 µg/mL; in assay [2], 2 µg/mL; in assay [3], 2 µg/mL; in assay [4], 0.13 to 8 µg/mL; in assay [5], 0.5 µg/mL.

For `Cc1c(CNCCCNc2nc(=O)c3sccc3[nH]2)sc(Br)c1Br` [Example 25, N-(4,5-Dibromo-3-methylthiophen-2-ylmethyl)-N′-(1H-thieno [3,2-d]pyrimidin-4-one)propane-1,3-diamine], the MIC in assay [1] was 0.06 to 0.5 µg/mL (≈ 0.122 to 1.02 µM); in assay [2], 2 µg/mL (≈ 4.06 µM); in assay [3], 32 µg/mL (≈ 65 µM); in assay [5], 0.5 µg/mL (≈ 1.02 µM). Further, the IC50 in assay [6] is ≤ 200 nM.

In the case of `C=C(F)c1sc(CNCCCNc2nc3nnccc3[nH]2)c(C)c1Br` [Example 14, N-(4-bromo-5-(1-fluorovinyl)-3-methylthiophen-2-ylmethyl)-N′-(5H-imidazo[4,5-c]pyridazin-6-yl)propane-1,3-diamine dihydrochloride], the MIC in assay [1] is 0.06 to 0.5 µg/mL; in assay [2], 0.25 µg/mL; in assay [3], 0.13 µg/mL; in assay [4] it was 0.13 to 8 µg/mL; in assay [5], 0.25 µg/mL.

Consider `CC=Cc1c(CNCCCNc2cc(=O)c3ccccc3[nH]2)sc(CC)c1Br` [Example 10, N-(4-bromo-3-(1-propenyl)-5-ethylthiophen-2-ylmethyl)-N′-(1H-quinolin-4-one)propane-1,3-diamine], for which the MIC in assay [1] is 0.06 to 0.5 µg/mL (≈ 0.13 to 1.09 µM); in assay [2], 0.25 µg/mL (≈ 0.543 µM); in assay [3], 8 µg/mL (≈ 17.4 µM); in assay [4] it was 0.13 to 8 µg/mL (≈ 0.282 to 17.4 µM); in assay [5], 0.06 µg/mL (≈ 0.13 µM).

Take `C#Cc1sc(CNCCCNc2nc3nnccc3[nH]2)c(C)c1Br` [Example 15, N-(4-bromo-5-ethynyl-3-methylthiophen-2-ylmethyl)-N′-(5H-imidazo[4,5-c]pyridazin-6-yl)propane-1,3-diamine dihydrochloride]: the MIC in assay [1] was 1 to 2 µg/mL; in assay [2] it was 0.5 µg/mL; in assay [3] it was 0.5 µg/mL; in assay [4] it was 0.13 to 8 µg/mL; in assay [5] it was 1 µg/mL.

Turning to `Cc1c(CNCCCNc2nc3ccccc3[nH]2)sc(C(F)F)c1Br` [Example 23, N-(4-bromo-5-difluoromethyl-3-methylthiophen-2-ylmethyl)-N′-(1H-benzimidazole)propane-1,3-diamine], the MIC was 1 to 2 µg/mL (≈ 2.33 to 4.66 µM) in assay [1]; 4 µg/mL (≈ 9.32 µM) in assay [2]; 8 µg/mL (≈ 18.6 µM) in assay [3]; 0.13 to 8 µg/mL (≈ 0.303 to 18.6 µM) in assay [4]; 1 µg/mL (≈ 2.33 µM) in assay [5].

On to `Cc1c(CNCCCNc2nc3nnccc3[nH]2)sc(C2CC2)c1Br` [Example 11, N-(4-Bromo-5-cyclopropyl-3-methylthiophen-2-ylmethyl)-N′-(5H-imidazo[4,5-c]pyridazin-6-yl)propane-1,3-diamine dihydrochloride], for which the MIC in assay [1] was 1 to 2 µg/mL; in assay [2], 8 µg/mL; in assay [3], 2 µg/mL; in assay [4] it was 0.13 to 8 µg/mL; in assay [5] it was 2 µg/mL.

As to `C=C(F)c1sc(CNCCCNc2nc3ncccc3[nH]2)c(C)c1Br` [Example 17, N-(4-bromo-5-(1-fluorovinyl)-3-methylthiophen-2-ylmethyl)-N′-(1H-imidazo[4,5-b]pyridin-2-yl)-propane-1,3-diamine], the MIC in assay [1] was 0.06 to 0.5 µg/mL (≈ 0.141 to 1.18 µM); in assay [2], 0.25 µg/mL (≈ 0.589 µM); in assay [3] it was 64 µg/mL (≈ 151 µM); in assay [5], 0.06 µg/mL (≈ 0.141 µM). Also, the IC50 in assay [6] is ≤ 200 nM.

Regarding `Cc1c(CNCCCNc2nc3cscc3[nH]2)sc(C(F)F)c1Br` [Example 19, N-(4-Bromo-5-difluoromethyl-3-methylthiophen-2-ylmethyl)-N′-(1H-thieno[3,4-d]imidazol-2-yl)propane-1,3-diamine], the MIC in assay [1] is 0.06 to 0.5 µg/mL (≈ 0.138 to 1.15 µM); in assay [2] it was 0.5 µg/mL (≈ 1.15 µM); in assay [3] it was 16 µg/mL (≈ 36.8 µM); in assay [5], 0.13 µg/mL (≈ 0.299 µM).

As to `Cc1c(CNCCCNc2cc(=O)c3ccccc3[nH]2)sc(C(F)(F)F)c1Br` [Example 8, N-(4-bromo-3-methyl-5-trifluoromethylthiophen-2-ylmethyl)-N′-(1H-quinolin-4-one)propane-1,3-diamine], the MIC in assay [1] is 0.06 to 0.5 µg/mL (≈ 0.126 to 1.05 µM); in assay [2], 0.13 µg/mL (≈ 0.274 µM); in assay [3] it was 64 µg/mL (≈ 135 µM); in assay [5], 0.13 µg/mL (≈ 0.274 µM).

As to `Cc1c(CNCCCNc2nc3ccccc3[nH]2)sc(C(F)(F)F)c1Br` [Example 24, N-(4-bromo-3-methyl-5-trifluoromethylthiophen-2-ylmethyl)-N′-(1H-benzimidazole)propane-1,3-diamine], the MIC in assay [1] was 0.06 to 0.5 µg/mL (≈ 0.134 to 1.12 µM); in assay [2] it was 1 µg/mL (≈ 2.24 µM); in assay [3] it was 8 µg/mL (≈ 17.9 µM); in assay [4] it was 0.13 to 8 µg/mL (≈ 0.291 to 17.9 µM); in assay [5], 0.5 µg/mL (≈ 1.12 µM).

Consider `C=C(F)c1sc(CNCCCNc2nc3cscc3[nH]2)c(C)c1Br` [Example 21, N-(4-bromo-5-(1-fluorovinyl)-3-methylthiophen-2-ylmethyl)-N′-(1H-thieno[3,4-d]imidazol-2-yl)propane-1,3-diamine], for which the MIC in assay [1] is 0.06 to 0.5 µg/mL (≈ 0.14 to 1.16 µM); in assay [2], 0.25 µg/mL (≈ 0.582 µM); in assay [3] it was 8 µg/mL (≈ 18.6 µM); in assay [4] it was 0.13 to 8 µg/mL (≈ 0.303 to 18.6 µM); in assay [5] it was 0.06 µg/mL (≈ 0.14 µM). In addition, in assay [6], the concentration for half-maximal inhibition (IC50) is ≤ 200 nM.
